From patent publication US6960574B2, “Antagonists of RF-amide neuropeptides” (University of Florida, priority 2002, dated 2005)
Peptide text beside a SMILES is read from it. * marks the point of attachment. Dansyl = CN(C)c1cccc2c(S(=O)(=O)*)cccc12

Test system: receptor labeled by the radioiodinated analogue of 1 (4, [125I]-YLFQPQRF-NH2); neuropeptide FF receptor
Assay: Competitive radioligand binding against 4 ([125I]Y8F-amide)
Details: mixture-based positional scanning; difference from averaged radioligand displacement of whole library (0); about 80 a.u. = 10-fold change in Ki

Relative Binding Index (RBI) [a.u.]	SMILES
39	CN(C)c1cccc2c(S(=O)(=O)NCC(=O)N[C@@H](CCC(N)=O)C(=O)N[C@@H](CCCNC(=N)N)C(N)=O)cccc12 [Dansyl-GQR-amide, dansyl-Gly-Gln-Arg-NH2] (Dansyl-Gly-Gln-Arg-NH2)
24	CN(C)c1cccc2c(S(=O)(=O)NCC(=O)N[C@@H](CCCNC(=N)N)C(=O)N[C@@H](CCCNC(=N)N)C(N)=O)cccc12 [Dansyl-GRR-amide]
31	C[C@@H](O)[C@H](NC(=O)CNS(=O)(=O)c1cccc2c(N(C)C)cccc12)C(=O)N[C@@H](CCCNC(=N)N)C(N)=O [Dansyl-GTR-amide] (Dansyl-Gly-Thr-Arg-NH2)
20	CC(C)[C@H](NC(=O)CNS(=O)(=O)c1cccc2c(N(C)C)cccc12)C(=O)N[C@@H](CCCNC(=N)N)C(N)=O [Dansyl-GVR-amide] (Dansyl-Gly-Val-Arg-NH2)
−1	CN(C)c1cccc2c(S(=O)(=O)N[C@@H](Cc3c[nH]cn3)C(=O)N[C@@H](CC(=O)O)C(=O)N[C@@H](CCCNC(=N)N)C(N)=O)cccc12 [Dansyl-HDR-amide] (Dansyl-His-Asp-Arg-NH2)
15	CN(C)c1cccc2c(S(=O)(=O)N[C@@H](Cc3cnc[nH]3)C(=O)N[C@@H](Cc3ccccc3)C(=O)N[C@@H](CCCNC(=N)N)C(N)=O)cccc12 [Dansyl-HFR-amide] (Dansyl-His-Phe-Arg-NH2)
22	CN(C)c1cccc2c(S(=O)(=O)N[C@@H](Cc3c[nH]cn3)C(=O)NCC(=O)N[C@@H](CCCNC(=N)N)C(N)=O)cccc12 [Dansyl-HGR-amide] (Dansyl-His-Gly-Arg-NH2)
14	CN(C)c1cccc2c(S(=O)(=O)N[C@@H](Cc3cnc[nH]3)C(=O)N[C@@H](CCCCN)C(=O)N[C@@H](CCCNC(=N)N)C(N)=O)cccc12 [Dansyl-HKR-amide] (Dansyl-His-Lys-Arg-NH2)
17	CSCC[C@H](NC(=O)[C@H](Cc1cnc[nH]1)NS(=O)(=O)c1cccc2c(N(C)C)cccc12)C(=O)N[C@@H](CCCNC(=N)N)C(N)=O [Dansyl-HMR-amide] (Dansyl-His-Met-Arg-NH2)
18	CN(C)c1cccc2c(S(=O)(=O)N[C@@H](Cc3c[nH]cn3)C(=O)N[C@@H](CC(N)=O)C(=O)N[C@@H](CCCNC(=N)N)C(N)=O)cccc12 [Dansyl-HNR-amide] (Dansyl-His-Asn-Arg-NH2)
20	CN(C)c1cccc2c(S(=O)(=O)N[C@@H](Cc3cnc[nH]3)C(=O)N3CCC[C@H]3C(=O)N[C@@H](CCCNC(=N)N)C(N)=O)cccc12 [Dansyl-HPR-amide] (Dansyl-His-Pro-Arg-NH2)
37	CN(C)c1cccc2c(S(=O)(=O)N[C@@H](Cc3c[nH]cn3)C(=O)N[C@@H](CO)C(=O)N[C@@H](CCCNC(=N)N)C(N)=O)cccc12 [Dansyl-HSR-amide] (Dansyl-His-Ser-Arg-NH2)
16	CN(C)c1cccc2c(S(=O)(=O)N[C@@H](Cc3c[nH]cn3)C(=O)N[C@@H](Cc3ccc(O)cc3)C(=O)N[C@@H](CCCNC(=N)N)C(N)=O)cccc12 [Dansyl-HYR-amide] (Dansyl-His-Tyr-Arg-NH2)
−60	CC[C@H](C)[C@H](NS(=O)(=O)c1cccc2c(N(C)C)cccc12)C(=O)N[C@@H](C)C(=O)N[C@@H](CCCNC(=N)N)C(N)=O [Dansyl-IAR-amide] (Dansyl-Ile-Ala-Arg-NH2)
−11	CC[C@H](C)[C@H](NS(=O)(=O)c1cccc2c(N(C)C)cccc12)C(=O)N[C@@H](CCC(=O)O)C(=O)N[C@@H](CCCNC(=N)N)C(N)=O [Dansyl-IER-amide] (Dansyl-Ile-Glu-Arg-NH2)
−6	CC[C@H](C)[C@H](NS(=O)(=O)c1cccc2c(N(C)C)cccc12)C(=O)NCC(=O)N[C@@H](CCCNC(=N)N)C(N)=O [Dansyl-IGR-amide] (Dansyl-Ile-Gly-Arg-NH2)
−17	CC[C@H](C)[C@H](NS(=O)(=O)c1cccc2c(N(C)C)cccc12)C(=O)N[C@@H](Cc1c[nH]cn1)C(=O)N[C@@H](CCCNC(=N)N)C(N)=O [Dansyl-IHR-amide] (Dansyl-Ile-His-Arg-NH2)
−13	CCC(C)C(NS(=O)(=O)c1cccc2c(N(C)C)cccc12)C(=O)NC(CCCCN)C(=O)NC(CCCNC(=N)N)C(N)=O (stereo not drawn) [Dansyl-IKR-amide] (Dansyl-Ile-Lys-Arg-NH2; configuration not given here)
3	CC[C@H](C)[C@H](NS(=O)(=O)c1cccc2c(N(C)C)cccc12)C(=O)N[C@@H](CCC(N)=O)C(=O)N[C@@H](CCCNC(=N)N)C(N)=O [Dansyl-IQR-amide] (Dansyl-Ile-Gln-Arg-NH2)

The next lines start with the compound.

SMILES	Relative Binding Index (RBI) [a.u.]
CN(C)c1cccc2c(S(=O)(=O)NCC(=O)N[C@@H](Cc3c[nH]c4ccccc34)C(=O)N[C@@H](CCCNC(=N)N)C(N)=O)cccc12 [Dansyl-GWR-amide] (Dansyl-Gly-Trp-Arg-NH2)	34
CN(C)c1cccc2c(S(=O)(=O)NCC(=O)N[C@@H](Cc3ccc(O)cc3)C(=O)N[C@@H](CCCNC(=N)N)C(N)=O)cccc12 [Dansyl-GYR-amide] (Dansyl-Gly-Tyr-Arg-NH2)	24
C[C@H](NC(=O)[C@H](Cc1c[nH]cn1)NS(=O)(=O)c1cccc2c(N(C)C)cccc12)C(=O)N[C@@H](CCCNC(=N)N)C(N)=O [Dansyl-HAR-amide] (Dansyl-His-Ala-Arg-NH2)	−32
CN(C)c1cccc2c(S(=O)(=O)N[C@@H](Cc3c[nH]cn3)C(=O)N[C@@H](CCC(=O)O)C(=O)N[C@@H](CCCNC(=N)N)C(N)=O)cccc12 [Dansyl-HER-amide] (Dansyl-His-Glu-Arg-NH2)	17
CN(C)c1cccc2c(S(=O)(=O)N[C@@H](Cc3c[nH]cn3)C(=O)N[C@@H](Cc3c[nH]cn3)C(=O)N[C@@H](CCCNC(=N)N)C(N)=O)cccc12 [Dansyl-HHR-amide] (Dansyl-His-His-Arg-NH2)	11
CC[C@H](C)[C@H](NC(=O)[C@H](Cc1c[nH]cn1)NS(=O)(=O)c1cccc2c(N(C)C)cccc12)C(=O)N[C@@H](CCCNC(=N)N)C(N)=O [Dansyl-HIR-amide] (Dansyl-His-Ile-Arg-NH2)	23
CC(C)C[C@H](NC(=O)[C@H](Cc1cnc[nH]1)NS(=O)(=O)c1cccc2c(N(C)C)cccc12)C(=O)N[C@@H](CCCNC(=N)N)C(N)=O [Dansyl-HLR-amide] (Dansyl-His-Leu-Arg-NH2)	8
CN(C)c1cccc2c(S(=O)(=O)N[C@@H](Cc3cnc[nH]3)C(=O)N[C@@H](CCC(N)=O)C(=O)N[C@@H](CCCNC(=N)N)C(N)=O)cccc12 [Dansyl-HQR-amide] (Dansyl-His-Gln-Arg-NH2)	30
CN(C)c1cccc2c(S(=O)(=O)N[C@@H](Cc3cnc[nH]3)C(=O)N[C@@H](CCCNC(=N)N)C(=O)N[C@@H](CCCNC(=N)N)C(N)=O)cccc12 [Dansyl-HRR-amide] (Dansyl-His-Arg-Arg-NH2)	15
C[C@@H](O)[C@H](NC(=O)[C@H](Cc1cnc[nH]1)NS(=O)(=O)c1cccc2c(N(C)C)cccc12)C(=O)N[C@@H](CCCNC(=N)N)C(N)=O [Dansyl-HTR-amide] (Dansyl-His-Thr-Arg-NH2)	22
CC(C)[C@H](NC(=O)[C@H](Cc1c[nH]cn1)NS(=O)(=O)c1cccc2c(N(C)C)cccc12)C(=O)N[C@@H](CCCNC(=N)N)C(N)=O [Dansyl-HVR-amide] (Dansyl-His-Val-Arg-NH2)	12
CN(C)c1cccc2c(S(=O)(=O)N[C@@H](Cc3cnc[nH]3)C(=O)N[C@@H](Cc3c[nH]c4ccccc34)C(=O)N[C@@H](CCCNC(=N)N)C(N)=O)cccc12 [Dansyl-HWR-amide] (Dansyl-His-Trp-Arg-NH2)	26
CC[C@H](C)[C@H](NS(=O)(=O)c1cccc2c(N(C)C)cccc12)C(=O)N[C@@H](CC(=O)O)C(=O)N[C@@H](CCCNC(=N)N)C(N)=O [Dansyl-IDR-amide] (Dansyl-Ile-Asp-Arg-NH2)	−29
CC[C@H](C)[C@H](NS(=O)(=O)c1cccc2c(N(C)C)cccc12)C(=O)N[C@@H](Cc1ccccc1)C(=O)N[C@@H](CCCNC(=N)N)C(N)=O [Dansyl-IFR-amide] (Dansyl-Ile-Phe-Arg-NH2)	−12
CC[C@H](C)[C@H](NC(=O)[C@@H](NS(=O)(=O)c1cccc2c(N(C)C)cccc12)[C@@H](C)CC)C(=O)N[C@@H](CCCNC(=N)N)C(N)=O [Dansyl-IIR-amide] (Dansyl-Ile-Ile-Arg-NH2)	−5
CC[C@H](C)[C@H](NS(=O)(=O)c1cccc2c(N(C)C)cccc12)C(=O)N[C@@H](CC(C)C)C(=O)N[C@@H](CCCNC(=N)N)C(N)=O [Dansyl-ILR-amide] (Dansyl-Ile-Leu-Arg-NH2)	−19
CC[C@H](C)[C@H](NS(=O)(=O)c1cccc2c(N(C)C)cccc12)C(=O)N[C@@H](CCSC)C(=O)N[C@@H](CCCNC(=N)N)C(N)=O [Dansyl-IMR-amide] (Dansyl-Ile-Met-Arg-NH2)	−11
CC[C@H](C)[C@H](NS(=O)(=O)c1cccc2c(N(C)C)cccc12)C(=O)N[C@@H](CC(N)=O)C(=O)N[C@@H](CCCNC(=N)N)C(N)=O [Dansyl-INR-amide] (Dansyl-Ile-Asn-Arg-NH2)	−10
CC[C@H](C)[C@H](NS(=O)(=O)c1cccc2c(N(C)C)cccc12)C(=O)N1CCC[C@H]1C(=O)N[C@@H](CCCNC(=N)N)C(N)=O [Dansyl-IPR-amide] (Dansyl-Ile-Pro-Arg-NH2)	−8
CC[C@H](C)[C@H](NS(=O)(=O)c1cccc2c(N(C)C)cccc12)C(=O)N[C@@H](CCCNC(=N)N)C(=O)N[C@@H](CCCNC(=N)N)C(N)=O [Dansyl-IRR-amide] (Dansyl-Ile-Arg-Arg-NH2)	−12
CC[C@H](C)[C@H](NS(=O)(=O)c1cccc2c(N(C)C)cccc12)C(=O)N[C@@H](CO)C(=O)N[C@@H](CCCNC(=N)N)C(N)=O [Dansyl-ISR-amide] (Dansyl-Ile-Ser-Arg-NH2)	10
